Experiments:
Test in all cases: pIC50, kinobeads binding competition
[1] = target: KIT (UniProt P10721); conditions: cell material: Lysate mix
Summary of the method: (§1)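 pIC50 was obtained by fitting fold changes against vehicle to logistic dose-response curves with the R drc package, using biological duplicates. Kinobeads-bound proteins were digested and measured by TMT10 LC-MS/MS. Before this, either living Jurkat cells received nine compound concentrations (top 30 μM, 1:4 steps) for 60 min at 37 °C prior to lysis, or Jurkat lysate or a 1:1:1:1 HEK293/K-562/HepG2/placenta lysate mix received nine concentrations (top 30 μM, 1:5 steps) for 60 min at 4 °C.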

[2] = target: T1, UniProt Q14164
T1 sequence (whole entry): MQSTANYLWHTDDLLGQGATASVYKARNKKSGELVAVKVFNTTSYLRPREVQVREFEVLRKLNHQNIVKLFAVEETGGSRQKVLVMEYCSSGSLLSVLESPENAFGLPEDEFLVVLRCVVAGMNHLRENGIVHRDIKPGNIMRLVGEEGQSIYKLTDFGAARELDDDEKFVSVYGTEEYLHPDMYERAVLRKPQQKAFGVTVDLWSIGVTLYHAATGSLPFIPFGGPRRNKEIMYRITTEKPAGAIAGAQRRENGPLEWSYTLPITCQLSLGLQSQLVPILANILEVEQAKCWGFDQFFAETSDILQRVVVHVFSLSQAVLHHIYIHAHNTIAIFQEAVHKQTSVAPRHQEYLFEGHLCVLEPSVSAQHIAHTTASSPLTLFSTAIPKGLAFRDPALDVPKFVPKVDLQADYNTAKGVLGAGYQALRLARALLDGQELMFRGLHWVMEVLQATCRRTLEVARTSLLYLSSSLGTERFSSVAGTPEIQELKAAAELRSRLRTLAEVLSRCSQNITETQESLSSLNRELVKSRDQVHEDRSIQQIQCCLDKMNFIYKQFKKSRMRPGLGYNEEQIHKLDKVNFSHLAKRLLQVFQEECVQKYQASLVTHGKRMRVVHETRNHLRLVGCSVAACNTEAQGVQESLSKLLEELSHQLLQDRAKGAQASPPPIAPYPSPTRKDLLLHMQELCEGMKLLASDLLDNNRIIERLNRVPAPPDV
Summary of the method: as §1

[3] = target: CDC7 (UniProt O00311)
Chain of CDC7 (O00311 whole entry, looked up): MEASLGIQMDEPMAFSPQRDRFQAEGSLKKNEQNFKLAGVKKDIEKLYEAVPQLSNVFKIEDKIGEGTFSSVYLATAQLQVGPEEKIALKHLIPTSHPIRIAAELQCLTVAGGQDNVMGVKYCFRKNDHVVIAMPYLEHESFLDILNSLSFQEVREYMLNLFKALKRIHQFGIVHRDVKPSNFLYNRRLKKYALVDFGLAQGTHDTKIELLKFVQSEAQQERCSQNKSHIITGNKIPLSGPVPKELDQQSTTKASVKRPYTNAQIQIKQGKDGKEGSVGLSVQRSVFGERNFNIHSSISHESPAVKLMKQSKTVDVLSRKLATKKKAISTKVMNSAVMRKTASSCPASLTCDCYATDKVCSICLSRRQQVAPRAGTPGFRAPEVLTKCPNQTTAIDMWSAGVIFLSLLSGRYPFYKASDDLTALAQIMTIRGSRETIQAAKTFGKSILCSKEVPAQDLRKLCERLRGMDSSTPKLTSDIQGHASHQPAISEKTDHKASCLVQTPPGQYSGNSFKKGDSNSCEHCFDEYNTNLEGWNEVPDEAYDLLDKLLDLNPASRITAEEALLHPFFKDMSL
Summary of the method: as §1

[4] = target: T2, TBK1 (UniProt Q9UHD2)
T2 sequence (whole entry): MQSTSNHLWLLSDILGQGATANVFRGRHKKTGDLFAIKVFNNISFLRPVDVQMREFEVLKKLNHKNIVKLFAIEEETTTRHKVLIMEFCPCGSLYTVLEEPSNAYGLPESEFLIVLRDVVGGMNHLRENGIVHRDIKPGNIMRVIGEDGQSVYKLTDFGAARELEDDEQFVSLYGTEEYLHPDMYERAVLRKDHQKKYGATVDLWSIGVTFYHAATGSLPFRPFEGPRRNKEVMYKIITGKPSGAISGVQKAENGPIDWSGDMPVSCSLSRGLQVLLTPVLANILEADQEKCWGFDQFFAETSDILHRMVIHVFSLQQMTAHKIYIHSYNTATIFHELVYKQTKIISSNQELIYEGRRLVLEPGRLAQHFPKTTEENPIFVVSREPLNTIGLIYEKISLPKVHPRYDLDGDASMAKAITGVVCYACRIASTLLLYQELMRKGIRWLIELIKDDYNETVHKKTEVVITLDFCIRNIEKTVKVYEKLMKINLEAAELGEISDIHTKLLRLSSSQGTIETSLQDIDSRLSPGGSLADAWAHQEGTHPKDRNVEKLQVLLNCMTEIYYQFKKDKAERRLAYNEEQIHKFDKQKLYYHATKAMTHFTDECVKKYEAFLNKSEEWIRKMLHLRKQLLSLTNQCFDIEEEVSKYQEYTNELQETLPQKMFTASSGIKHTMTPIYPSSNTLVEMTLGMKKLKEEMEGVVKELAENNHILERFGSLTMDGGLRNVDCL
Summary of the method: as §1

[5] = target: RPS6KA6 (UniProt Q9UK32); conditions: cell material: Lysate mix
Chain of RPS6KA6 (Q9UK32 whole entry): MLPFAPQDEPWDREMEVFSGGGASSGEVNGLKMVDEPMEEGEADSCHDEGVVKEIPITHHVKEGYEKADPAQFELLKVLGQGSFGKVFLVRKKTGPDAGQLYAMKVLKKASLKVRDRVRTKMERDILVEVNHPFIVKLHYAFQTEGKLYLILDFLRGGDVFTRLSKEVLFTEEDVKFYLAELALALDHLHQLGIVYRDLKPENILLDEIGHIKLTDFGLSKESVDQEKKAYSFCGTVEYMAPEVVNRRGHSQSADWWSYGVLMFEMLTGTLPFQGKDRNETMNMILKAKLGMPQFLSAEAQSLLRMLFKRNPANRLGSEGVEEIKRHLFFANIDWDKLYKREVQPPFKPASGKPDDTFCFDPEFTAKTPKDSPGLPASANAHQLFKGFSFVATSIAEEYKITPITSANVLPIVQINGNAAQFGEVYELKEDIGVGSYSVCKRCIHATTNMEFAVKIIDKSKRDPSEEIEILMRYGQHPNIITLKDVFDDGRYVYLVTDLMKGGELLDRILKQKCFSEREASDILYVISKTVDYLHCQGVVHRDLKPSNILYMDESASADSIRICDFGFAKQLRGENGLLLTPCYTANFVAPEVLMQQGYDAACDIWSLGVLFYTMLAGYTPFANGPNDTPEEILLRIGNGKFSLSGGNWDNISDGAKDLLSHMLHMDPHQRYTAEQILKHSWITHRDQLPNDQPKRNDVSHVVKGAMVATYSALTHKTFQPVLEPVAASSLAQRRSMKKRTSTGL
Summary of the method: as §1

[6] = target: CLK3 (UniProt P49761)
Chain of CLK3 (P49761 whole entry, looked up): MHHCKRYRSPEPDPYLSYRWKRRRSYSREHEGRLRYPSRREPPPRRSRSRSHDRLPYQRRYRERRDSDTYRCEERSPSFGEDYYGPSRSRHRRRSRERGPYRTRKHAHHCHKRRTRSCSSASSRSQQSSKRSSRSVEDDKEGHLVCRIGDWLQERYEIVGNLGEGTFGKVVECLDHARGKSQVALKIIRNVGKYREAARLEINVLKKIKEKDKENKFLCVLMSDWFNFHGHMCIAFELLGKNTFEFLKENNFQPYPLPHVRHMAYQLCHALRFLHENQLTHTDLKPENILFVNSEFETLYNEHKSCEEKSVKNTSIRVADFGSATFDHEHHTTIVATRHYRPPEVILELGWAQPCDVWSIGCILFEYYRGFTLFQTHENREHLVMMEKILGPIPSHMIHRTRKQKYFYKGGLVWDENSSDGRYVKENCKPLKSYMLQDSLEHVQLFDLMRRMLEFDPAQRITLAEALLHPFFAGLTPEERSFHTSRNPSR
Summary of the method: as §1

[7] = target: UniProt O95747
Chain of UniProt O95747 (O95747 whole entry, looked up): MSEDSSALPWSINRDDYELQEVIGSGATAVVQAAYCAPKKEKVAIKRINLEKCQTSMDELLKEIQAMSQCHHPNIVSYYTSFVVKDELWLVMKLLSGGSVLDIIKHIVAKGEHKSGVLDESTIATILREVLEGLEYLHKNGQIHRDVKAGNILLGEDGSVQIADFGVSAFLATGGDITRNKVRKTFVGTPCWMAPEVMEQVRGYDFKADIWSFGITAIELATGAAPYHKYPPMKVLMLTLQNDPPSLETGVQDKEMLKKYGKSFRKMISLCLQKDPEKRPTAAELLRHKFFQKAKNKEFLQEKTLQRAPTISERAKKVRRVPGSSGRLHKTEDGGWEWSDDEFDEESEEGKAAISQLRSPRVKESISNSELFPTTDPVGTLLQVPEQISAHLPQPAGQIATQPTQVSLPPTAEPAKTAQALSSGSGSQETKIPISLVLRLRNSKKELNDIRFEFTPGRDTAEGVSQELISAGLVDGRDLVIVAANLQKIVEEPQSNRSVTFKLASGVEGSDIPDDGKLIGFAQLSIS
Summary of the method: as §1

[8] = target: CLK4 (UniProt Q9HAZ1)
Chain of CLK4 (Q9HAZ1 whole entry, looked up): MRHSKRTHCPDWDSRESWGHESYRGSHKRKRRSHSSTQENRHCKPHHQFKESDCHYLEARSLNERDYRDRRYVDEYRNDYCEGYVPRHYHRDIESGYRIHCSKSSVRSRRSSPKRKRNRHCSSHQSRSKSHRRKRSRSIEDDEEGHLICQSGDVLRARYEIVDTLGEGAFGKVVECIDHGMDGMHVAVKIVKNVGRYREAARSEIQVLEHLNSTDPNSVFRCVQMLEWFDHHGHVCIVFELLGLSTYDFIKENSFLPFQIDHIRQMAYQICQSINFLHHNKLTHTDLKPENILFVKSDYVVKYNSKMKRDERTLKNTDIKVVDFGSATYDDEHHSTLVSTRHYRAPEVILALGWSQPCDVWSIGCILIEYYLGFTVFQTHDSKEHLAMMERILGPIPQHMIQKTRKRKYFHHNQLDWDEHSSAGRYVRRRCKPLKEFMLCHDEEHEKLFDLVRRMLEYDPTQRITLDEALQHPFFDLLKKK
Summary of the method: as §1

[9] = target: TNIK (UniProt Q9UKE5)
Summary of the method: as §1

[10] = target: LIMK2 (UniProt P53671)
Summary of the method: as §1

[11] = target: T3, UniProt Q96D53
T3 sequence (whole entry): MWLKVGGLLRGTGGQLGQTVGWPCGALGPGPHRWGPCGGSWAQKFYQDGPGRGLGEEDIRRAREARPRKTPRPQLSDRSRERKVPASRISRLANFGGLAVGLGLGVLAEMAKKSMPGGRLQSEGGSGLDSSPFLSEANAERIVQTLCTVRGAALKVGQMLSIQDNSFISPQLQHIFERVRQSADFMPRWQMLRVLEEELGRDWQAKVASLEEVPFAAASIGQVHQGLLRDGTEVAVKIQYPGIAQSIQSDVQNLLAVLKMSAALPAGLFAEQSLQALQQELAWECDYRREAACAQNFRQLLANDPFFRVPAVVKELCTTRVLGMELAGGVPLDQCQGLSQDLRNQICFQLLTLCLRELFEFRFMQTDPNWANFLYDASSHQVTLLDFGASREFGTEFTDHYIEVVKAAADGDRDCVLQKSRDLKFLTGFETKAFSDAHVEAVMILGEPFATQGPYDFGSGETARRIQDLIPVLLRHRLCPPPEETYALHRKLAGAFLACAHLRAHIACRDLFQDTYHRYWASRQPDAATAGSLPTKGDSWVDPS
Summary of the method: as §1

[12] = target: UniProt P57059; conditions: cell material: Lysate mix
Chain of UniProt P57059 (P57059 whole entry): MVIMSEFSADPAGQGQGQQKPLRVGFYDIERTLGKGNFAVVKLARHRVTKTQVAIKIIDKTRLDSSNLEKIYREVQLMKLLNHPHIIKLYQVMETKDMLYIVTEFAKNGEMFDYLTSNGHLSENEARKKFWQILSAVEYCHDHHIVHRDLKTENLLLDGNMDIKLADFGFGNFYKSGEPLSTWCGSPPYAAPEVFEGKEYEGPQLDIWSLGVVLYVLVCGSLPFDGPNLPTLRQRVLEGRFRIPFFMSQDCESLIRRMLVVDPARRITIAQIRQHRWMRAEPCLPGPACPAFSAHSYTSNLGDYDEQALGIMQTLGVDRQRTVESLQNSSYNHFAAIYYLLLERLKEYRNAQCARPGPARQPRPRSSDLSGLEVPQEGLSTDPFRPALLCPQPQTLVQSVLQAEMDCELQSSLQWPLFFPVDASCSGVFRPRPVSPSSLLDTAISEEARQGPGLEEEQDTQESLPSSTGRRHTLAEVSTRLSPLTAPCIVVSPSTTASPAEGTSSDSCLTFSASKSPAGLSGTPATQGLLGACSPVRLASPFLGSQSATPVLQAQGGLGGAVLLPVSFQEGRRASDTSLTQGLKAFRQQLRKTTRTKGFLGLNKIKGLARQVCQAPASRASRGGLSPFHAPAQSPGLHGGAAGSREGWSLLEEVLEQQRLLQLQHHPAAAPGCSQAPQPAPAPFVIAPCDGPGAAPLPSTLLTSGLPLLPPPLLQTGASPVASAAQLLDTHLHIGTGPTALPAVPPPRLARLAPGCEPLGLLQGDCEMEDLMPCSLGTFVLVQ
Summary of the method: as §1

[13] = target: UniProt Q9P289
Summary of the method: as §1

[14] = target: CDK4 (UniProt P11802); conditions: cell material: Lysate mix
Chain of CDK4 (P11802 whole entry): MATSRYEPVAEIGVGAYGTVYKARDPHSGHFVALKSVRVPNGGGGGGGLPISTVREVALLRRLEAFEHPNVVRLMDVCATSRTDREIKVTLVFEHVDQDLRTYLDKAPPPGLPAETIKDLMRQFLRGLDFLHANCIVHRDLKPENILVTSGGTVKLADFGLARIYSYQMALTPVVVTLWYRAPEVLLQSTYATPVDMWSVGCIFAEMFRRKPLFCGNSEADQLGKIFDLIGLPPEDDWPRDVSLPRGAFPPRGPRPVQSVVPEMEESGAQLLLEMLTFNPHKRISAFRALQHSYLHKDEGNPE
Summary of the method: as §1

Chain of KIT (P10721 whole entry): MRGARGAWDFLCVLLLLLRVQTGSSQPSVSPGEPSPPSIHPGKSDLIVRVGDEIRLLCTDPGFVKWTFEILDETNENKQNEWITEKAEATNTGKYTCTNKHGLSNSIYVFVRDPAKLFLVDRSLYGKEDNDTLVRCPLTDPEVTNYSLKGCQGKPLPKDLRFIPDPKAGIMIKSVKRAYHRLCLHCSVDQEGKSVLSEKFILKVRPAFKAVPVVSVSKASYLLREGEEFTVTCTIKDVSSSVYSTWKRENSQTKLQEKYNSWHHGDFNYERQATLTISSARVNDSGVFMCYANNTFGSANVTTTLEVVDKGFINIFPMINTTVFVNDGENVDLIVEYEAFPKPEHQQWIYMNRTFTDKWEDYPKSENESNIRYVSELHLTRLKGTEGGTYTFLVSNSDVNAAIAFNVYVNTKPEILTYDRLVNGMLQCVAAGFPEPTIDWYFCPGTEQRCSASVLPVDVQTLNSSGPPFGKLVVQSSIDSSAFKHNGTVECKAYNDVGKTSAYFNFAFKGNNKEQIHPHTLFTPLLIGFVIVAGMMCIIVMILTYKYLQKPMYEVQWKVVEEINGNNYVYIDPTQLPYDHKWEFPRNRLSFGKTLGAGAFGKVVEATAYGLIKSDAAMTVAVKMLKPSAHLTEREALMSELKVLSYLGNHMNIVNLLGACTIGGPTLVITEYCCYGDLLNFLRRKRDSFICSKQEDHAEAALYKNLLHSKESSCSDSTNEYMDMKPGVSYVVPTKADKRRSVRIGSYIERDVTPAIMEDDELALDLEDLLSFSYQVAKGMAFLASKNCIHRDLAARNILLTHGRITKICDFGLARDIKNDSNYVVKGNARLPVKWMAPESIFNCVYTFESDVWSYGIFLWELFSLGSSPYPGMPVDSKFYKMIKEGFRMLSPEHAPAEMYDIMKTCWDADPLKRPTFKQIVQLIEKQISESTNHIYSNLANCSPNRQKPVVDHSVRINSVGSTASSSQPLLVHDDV

Structure (SMILES) | pIC50 [1] | pIC50 ([2]; cell material: Lysate mix) | pIC50 ([3]; cell material: Lysate mix) | pIC50 ([4]; cell material: Lysate mix) | pIC50 [5] | pIC50 ([6]; cell material: Lysate mix) | pIC50 ([7]; cell material: Lysate mix) | pIC50 ([8]; cell material: Lysate mix) | pIC50 ([9]; cell material: Lysate mix) | pIC50 ([10]; cell material: Lysate mix) | pIC50 [12] | pIC50 ([13]; cell material: Lysate mix) | pIC50 ([9]; cell material: Jurkat cells) | pIC50 ([11]; cell material: Lysate mix) | pIC50 ([13]; cell material: Jurkat lysate) | pIC50 [14] | pIC50 ([7]; cell material: Jurkat cells) | pIC50 ([7]; cell material: Jurkat lysate) | pIC50 ([8]; cell material: Jurkat cells) | pIC50 ([8]; cell material: Jurkat lysate) | pIC50 ([2]; cell material: Jurkat cells) | pIC50 ([2]; cell material: Jurkat lysate) | pIC50 ([9]; cell material: Jurkat lysate) | pIC50 ([3]; cell material: Jurkat cells) | pIC50 ([10]; cell material: Jurkat cells) | pIC50 ([10]; cell material: Jurkat lysate) | pIC50 ([4]; cell material: Jurkat cells) | pIC50 ([4]; cell material: Jurkat lysate) | pIC50 ([11]; cell material: Jurkat cells) | pIC50 ([13]; cell material: Jurkat cells) | pIC50 ([6]; cell material: Jurkat lysate)
C#CCNC(=O)c1cc(Nc2cc(C3CC3)[nH]n2)nc(N2CCN(Cc3ccc(S(=O)(=O)F)cc3)CC2)n1 | < 4.52 | 5.25 | – | 5.28 | 4.94 | 5.15 | 5.54 | 5.2 | 5.27 | 5.53 | < 4.52 | < 4.52 | – | – | – | – | 6.16 | 5.4 | 6.1 | 4.85 | 6 | 4.89 | < 4.52 | 5.68 | 6.52 | 5.16 | 5.98 | < 4.52 | < 4.52 | 6.36 | < 4.52
O=C(NCCNC(=O)c1cc(Nc2cc(C3CC3)[nH]n2)nc(N2CCN(Cc3ccc(S(=O)(=O)F)cc3)CC2)n1)OC1CC/C=C/CCC1 (stereo unspecified) | – | < 4.52 | – | < 4.52 | < 4.52 | < 4.52 | < 4.52 | < 4.52 | < 4.52 | < 4.52 | < 4.52 | < 4.52 | 5.6 | < 4.52 | < 4.52 | – | 5.3 | < 4.52 | – | < 4.52 | 5.28 | < 4.52 | < 4.52 | – | 6.33 | < 4.52 | 5.71 | < 4.52 | < 4.52 | – | < 4.52
CCNC(=O)c1cc(Nc2cc(C3CC3)[nH]n2)nc(N2CCN(Cc3ccc(S(=O)(=O)F)cc3)CC2)n1 | < 4.52 | 5.08 | 4.57 | 5.34 | 4.87 | 4.85 | 5.24 | 5.05 | – | 5.38 | < 4.52 | – | – | – | – | 5.05 | – | – | – | – | – | – | – | – | – | – | – | – | – | – | –
Cc1cc(Nc2cc(C(=O)NCCNC(=O)OC3CC/C=C/CCC3)nc(N3CCN(Cc4ccc(S(=O)(=O)F)cc4)CC3)n2)n[nH]1 (stereo unspecified) | – | < 4.52 | – | < 4.52 | < 4.52 | – | < 4.52 | < 4.52 | < 4.52 | < 4.52 | – | < 4.52 | – | – | – | < 4.52 | – | – | – | – | – | – | – | – | – | – | – | – | – | – | –

More lines, main results first:

pIC50 [1] | pIC50 ([2]; cell material: Lysate mix) | pIC50 ([3]; cell material: Lysate mix) | pIC50 ([4]; cell material: Lysate mix) | pIC50 [5] | pIC50 ([6]; cell material: Lysate mix) | pIC50 ([7]; cell material: Lysate mix) | pIC50 ([8]; cell material: Lysate mix) | pIC50 ([9]; cell material: Lysate mix) | pIC50 ([10]; cell material: Lysate mix) | pIC50 [12] | pIC50 ([13]; cell material: Lysate mix) | pIC50 ([9]; cell material: Jurkat cells) | pIC50 ([11]; cell material: Lysate mix) | pIC50 ([13]; cell material: Jurkat lysate) | pIC50 [14] | Structure (SMILES) | pIC50 ([7]; cell material: Jurkat cells) | pIC50 ([7]; cell material: Jurkat lysate) | pIC50 ([8]; cell material: Jurkat cells) | pIC50 ([8]; cell material: Jurkat lysate) | pIC50 ([2]; cell material: Jurkat cells) | pIC50 ([2]; cell material: Jurkat lysate) | pIC50 ([9]; cell material: Jurkat lysate) | pIC50 ([3]; cell material: Jurkat cells) | pIC50 ([10]; cell material: Jurkat cells) | pIC50 ([10]; cell material: Jurkat lysate) | pIC50 ([4]; cell material: Jurkat cells) | pIC50 ([4]; cell material: Jurkat lysate) | pIC50 ([11]; cell material: Jurkat cells) | pIC50 ([13]; cell material: Jurkat cells) | pIC50 ([6]; cell material: Jurkat lysate)
< 4.52 | < 4.52 | < 4.52 | < 4.52 | < 4.52 | < 4.52 | – | – | – | – | – | – | – | – | – | – | C#CCNC(=O)c1cc(Nc2cc(C)[nH]n2)nc(N2CCN(Cc3ccc(S(=O)(=O)F)cc3)CC2)n1 | – | – | – | – | – | – | – | – | – | – | – | – | – | – | –
< 4.52 | – | – | – | – | < 4.52 | < 4.52 | < 4.52 | < 4.52 | 4.62 | < 4.52 | – | – | < 4.52 | – | < 4.52 | CCNC(=O)c1cc(Nc2cc(C)[nH]n2)nc(N2CCN(Cc3ccc(S(=O)(=O)F)cc3)CC2)n1 | – | – | – | – | – | – | – | – | – | – | – | – | – | – | –

Source: the supplement of paper PMC12076712
